Legend:
AMARE [1] = assay: Herbicidal pre-emergence action 2b (doubly sown, 1280 g/ha); type: in vivo, Amaranthus retroflexus; details: doubly sown pots, dosage 1280 g/ha, visual scoring after about 3 weeks
From the text: (§1) [table] b) Seeds of mono- and dicotyledonous weed plants are placed in plastic pots in sandy loam soil (doubly sown with one species each of mono- or dicotyledonous weed plants per pot) and covered with soil. The compounds of the invention, formulated in the form of wettable powders (WP) or as emulsion concentrates (EC), are then applied onto the surface of the covering soil as aqueous suspension or emulsion with addition of 0.5% additive at a water application rate equivalent to 600 litres per hectare. After the treatment, the pots are placed in a greenhouse and kept under good growth conditions for the trial plants. After about 3 weeks, the effect of the preparations is scored visually in comparison with untreated controls as percentages. For example, 100% activity=the plants have died, 0% activity=like control plants. Tables B16 to B21 below show the effects of selected compounds of the general formula (I) according to Tables 1 and 2 on various harmful plants and at an application rate corresponding to 1280 g/ha, which were obtained by the experimental procedure mentioned above.

STEME = assay: as above; type: in vivo, Stellaria media; details: doubly sown pots, dosage 1280 g/ha, visual scoring after about 3 weeks
From the text: as §1

POAAN [2] = assay: Herbicidal post-emergence action 1b (twin sowing, 1280 g/ha); type: in vivo, Poa annua; details: dosage 1280 g/ha, visual rating about 3 weeks after treatment
Protocol: [table] b) Seeds of mono- and dicotyledonous weed plants are placed in plastic pots in sandy loam soil (twin sowing with one species each of mono- or dicotyledonous weed plants per pot), covered with soil and cultivated in a greenhouse under controlled growth conditions. 2 to 3 weeks after sowing, the test plants are treated at the one-leaf stage. The compounds of the invention, formulated in the form of wettable powders (WP) or as emulsion concentrates (EC), are applied to the green parts of the plants as aqueous suspension or emulsion with addition of 0.5% additive at a water application rate equivalent to 600 litres per hectare. After the test plants have been kept in the greenhouse under optimum growth conditions for about 3 weeks, the activity of the preparations is rated visually in comparison to untreated controls. For example, 100% activity=the plants have died, 0% activity=like control plants. Tables A16 to A21 below show the effects of selected compounds of the general formula (I) according to Tables 1 and 2 on various harmful plants and at an application rate corresponding to 1280 g/ha, which were obtained by the experimental procedure mentioned above.

POAAN [3] = assay: Herbicidal pre-emergence action 2b (doubly sown, 1280 g/ha); type: in vivo, Poa annua; details: doubly sown pots, dosage 1280 g/ha, visual scoring after about 3 weeks
From the text: as §1

SETVI [4] = assay: Herbicidal pre-emergence action 2a (greenhouse pots, visual scoring); type: in vivo, Setaria viridis; details: dosage 320 g/ha, visual scoring after about 3 weeks vs untreated controls
From the text: (§2) [table] a) Seeds of monocotyledonous and dicotyledonous weed plants and crop plants are placed in plastic or organic plant pots and covered with soil. The compounds of the invention, formulated in the form of wettable powders (WP) or as emulsion concentrates (EC), are then applied onto the surface of the covering soil as aqueous suspension or emulsion with addition of 0.5% additive at a water application rate of 600 1/ha (converted). After the treatment, the pots are placed in a greenhouse and kept under good growth conditions for the trial plants. After about 3 weeks, the effect of the preparations is scored visually in comparison with untreated controls as percentages. For example, 100% activity=the plants have died, 0% activity=like control plants. Tables B1 to B15 below show the effects of selected compounds of the general formula (I) according to Tables 1 and 2 on various harmful plants and an application rate corresponding to 320 g/ha and/or 80 g/ha, which were obtained by the experimental procedure mentioned above.

SETVI [5] = assay: Herbicidal post-emergence action 1a (greenhouse pots, visual rating); type: in vivo, Setaria viridis; details: rated visually about 3 weeks after treatment, 100% = plants have died, 0% = like control plants
Protocol: (§3) [table] a) Seeds of monocotyledonous and dicotyledonous weeds and crop plants are placed in sandy loam in plastic or organic plant pots, covered with soil and cultivated in a greenhouse under controlled growth conditions. 2 to 3 weeks after sowing, the test plants are treated at the one-leaf stage. The compounds of the invention, formulated in the form of wettable powders (WP) or as emulsion concentrates (EC), are then sprayed onto the green parts of the plants as aqueous suspension or emulsion with addition of 0.5% additive at a water application rate of 600 1/ha (converted). After the test plants have been kept in the greenhouse under optimum growth conditions for about 3 weeks, the activity of the preparations is rated visually in comparison to untreated controls. For example, 100% activity=the plants have died, 0% activity=like control plants. Tables A1 to A15 below show the effects of selected compounds of the general formula (I) according to Tables 1 and 2 on various harmful plants and an application rate corresponding to 320 g/ha and/or 80 g/ha, which were obtained by the experimental procedure mentioned above.

AMARE [6] = assay: Herbicidal pre-emergence action 2a (greenhouse pots, visual scoring); type: in vivo, Amaranthus retroflexus; details: dosage 320 g/ha, visual scoring after about 3 weeks vs untreated controls
From the text: as §2

VERPE [7] = assay: Herbicidal post-emergence action 1a (greenhouse pots, visual rating); type: in vivo, Veronica persica; details: dosage 320 g/ha, visual rating about 3 weeks after treatment
Protocol: as §3

LOLRI = assay: Herbicidal pre-emergence action 2a (greenhouse pots, visual scoring); type: in vivo, Lolium rigidum; details: dosage 320 g/ha, visual scoring after about 3 weeks vs untreated controls
From the text: as §2

VIOTR = assay: Herbicidal post-emergence action 1a (greenhouse pots, visual rating); type: in vivo, Viola tricolor; details: dosage 320 g/ha, visual rating about 3 weeks after treatment
Protocol: as §3

ECHCG = assay: Herbicidal pre-emergence action 2b (doubly sown, 1280 g/ha); type: in vivo, Echinochloa crus-galli; details: doubly sown pots, dosage 1280 g/ha, visual scoring after about 3 weeks
From the text: as §1

VERPE [8] = assay: Herbicidal pre-emergence action 2a (greenhouse pots, visual scoring); type: in vivo, Veronica persica; details: dosage 320 g/ha, visual scoring after about 3 weeks vs untreated controls
From the text: as §2

ALOMY [9] = assay: as above; type: in vivo, Alopecurus myosuroides; details: dosage 320 g/ha, visual scoring after about 3 weeks
From the text: as §2

POLCO [10] = assay: Herbicidal post-emergence action 1a (greenhouse pots, visual rating); type: in vivo, Polygonum convolvulus; details: dosage 320 g/ha, visual rating about 3 weeks after treatment
Protocol: as §3

AMARE [11] = assay: as above; type: in vivo, Amaranthus retroflexus; details: visual rating about 3 weeks after treatment
Protocol: as §3

ALOMY [12] = assay: as above; type: in vivo, Alopecurus myosuroides; details: Dosage 80 g/ha; rated visually about 3 weeks after treatment; 100% = plants have died, 0% = like control plants
Protocol: as §3

POLCO [13] = assay: Herbicidal pre-emergence action 2a (greenhouse pots, visual scoring); type: in vivo, Polygonum convolvulus; details: dosage 320 g/ha, visual scoring after about 3 weeks vs untreated controls
From the text: as §2

AVEFA [14] = assay: Herbicidal post-emergence action 1a (greenhouse pots, visual rating); type: in vivo, Avena fatua; details: Dosage 80 g/ha; rated visually about 3 weeks after treatment; 100% = plants have died, 0% = like control plants
Protocol: as §3

AVEFA [15] = assay: Herbicidal pre-emergence action 2a (greenhouse pots, visual scoring); type: in vivo, Avena fatua; details: dosage 320 g/ha, visual scoring after about 3 weeks
From the text: as §2

COC(=O)C(C)Oc1nn(-c2cnccn2)c(-c2ccccc2)c1Br (racemic) [Example I-19]
Pre-emergence action at 1280 g/ha against AMARE in % (AMARE [1]): 100% | Pre-emergence action at 1280 g/ha against STEME in % (STEME): 100% | Post-emergence action at 1280 g/ha against POAAN in % (POAAN [2]): 100% | Pre-emergence action at 1280 g/ha against POAAN in % (POAAN [3]): 100%

COC(=O)C(C)Oc1nn(-c2nccnc2F)c(-c2ccc(F)nc2)c1Br (racemic) [Example I-78]
Pre-emergence action against SETVI in % (SETVI [4]): 90% | Post-emergence action against SETVI in % (SETVI [5]; Dosage 80 g/ha): 80% | Post-emergence action against SETVI in % (SETVI [5]; Dosage 320 g/ha): 100% | Pre-emergence action against AMARE in % (AMARE [6]): 80% | Post-emergence action against VERPE in % (VERPE [7]): 80%

COC(=O)[C@@H](C)Oc1nn(-c2cnccn2)c(-c2cccc(F)c2)c1Br [Example 1-20]
Pre-emergence action against LOLRI in % (LOLRI): 100% | Post-emergence action against VIOTR in % (VIOTR): 90%

COC(=O)COc1nn(-c2cnccn2)c(-c2ccc(F)c(F)c2)c1C#N [Example I-23]
Pre-emergence action at 1280 g/ha against ECHCG in % (ECHCG): 100% | Pre-emergence action at 1280 g/ha against AMARE in % (AMARE [1]): 100%

COC(=O)[C@@H](C)Oc1nn(-c2cnccn2)c(-c2ccnnc2)c1C#N [Example I-32]
Pre-emergence action against VERPE in % (VERPE [8]): 90%

COC(=O)[C@@H](C)Oc1nn(-c2nccnc2F)c(-c2ccc(F)nc2)c1Br [Example I-80]
Pre-emergence action against AMARE in % (AMARE [6]): 100% | Pre-emergence action against ALOMY in % (ALOMY [9]): 100% | Post-emergence action against POLCO in % (POLCO [10]): 80% | Pre-emergence action against LOLRI in % (LOLRI): 80% | Pre-emergence action against VERPE in % (VERPE [8]): 80% | Post-emergence action against AMARE in % (AMARE [11]; dosage 80 g/ha): 80% | Post-emergence action against AMARE in % (AMARE [11]; dosage 320 g/ha): 80%

COC(=O)COc1nn(-c2cnccn2)c(-c2ccc(F)nc2)c1C1CC1 [Example I-84]
Pre-emergence action against AMARE in % (AMARE [6]): 90% | Post-emergence action against POLCO in % (POLCO [10]): 80% | Post-emergence action against AMARE in % (AMARE [11]; dosage 80 g/ha): 90% | Post-emergence action against AMARE in % (AMARE [11]; dosage 320 g/ha): 90% | Post-emergence action against VERPE in % (VERPE [7]): 80%

CC(Oc1nn(-c2cnccn2)c(-c2ccc(F)nc2)c1C1CC1)C(=O)O (stereo not shown) [Example I-86]
Post-emergence action against ALOMY in % (ALOMY [12]): 90% | Pre-emergence action against AMARE in % (AMARE [6]): 80% | Pre-emergence action against ALOMY in % (ALOMY [9]): 100% | Pre-emergence action against LOLRI in % (LOLRI): 100% | Pre-emergence action against POLCO in % (POLCO [13]): 80% | Post-emergence action against AVEFA in % (AVEFA [14]): 90%

COC(=O)[C@@H](C)Oc1nn(-c2cnccn2)c(-c2ccc(F)nc2)c1C1CC1 [Example I-87]
Pre-emergence action against SETVI in % (SETVI [4]): 100% | Pre-emergence action against AVEFA in % (AVEFA [15]): 90% | Post-emergence action against ALOMY in % (ALOMY [12]): 100% | Pre-emergence action against ALOMY in % (ALOMY [9]): 100% | Pre-emergence action against LOLRI in % (LOLRI): 100% | Pre-emergence action against VERPE in % (VERPE [8]): 80% | Post-emergence action against AMARE in % (AMARE [11]; dosage 80 g/ha): 80% | Post-emergence action against AVEFA in % (AVEFA [14]): 90%
